Patent US20180243387A1, “TECHNOLOGY FOR C[…] CELLS” (RIKEN, priority 2017, published 2018)

Assays:
Format in all cases: cell-based, mice
naïve CD4SP T cells [1] = assay: Cell survival rate of naïve CD4SP T cells (apoptosis inducing effect); conditions: cGAMP 10 or 30 μg/mL, 15 hours, FIG. 2
[2] = system: cell cycle-related factors in naïve CD4SP T cells; assay: Gene expression of cell cycle-related factors by quantitative PCR; conditions: anti-CD3/CD28 antibodies 24 hours, FIG. 3
Experimental: As described in (1) above, naïve CD4SP T cells were stimulated with anti-CD3/CD28 antibodies for 24 hours in the presence or absence of cGAMP. Subsequently, the gene expression of cell cycle-related factors was examined by quantitative PCR according to a conventional method. The result was as illustrated in FIG. 3.

[3] = system: mTOR Complex 1 (mTORC1) signaling; assay: Phosphorylated level of signal molecules by western blotting; conditions: anti-CD3/CD28 antibodies 24 hours, FIG. 4
Experimental: As a signal molecule that is involved in the expression of cell proliferation-related genes, the activation level of mTOR Complex 1 (mTORC1) signaling was analyzed. Specifically, as described in (1) above, naïve CD4SP T cells were stimulated with anti-CD3/CD28 antibodies for 24 hours in the presence or absence of cGAMP. Subsequently, the phosphorylated level of indicated factors was evaluated with antibodies specific to the phosphorylated form by western blotting. As primary antibodies, the antibodies set forth in the following were used. The following primary antibodies were manufactured by Cell Signaling Technology, Inc. and the catalog numbers are indicated in the parentheses.
Anti-phospho-IRF3 (#4947)
Anti-phospho-STAT5 (#9351)
Anti-phospho-Jak3 (#5031)
Anti-phospho-STING (#13647)
As a second antibody, Goat anti-Rabbit IgG (H+L) Secondary Antibody, HRP from Thermo Fisher Scientific Inc. was used. Phosphorylated proteins were detected according to a manufacturer manual. The result was as illustrated in FIG. 4.

naïve CD4SP T cells [4] = assay: Cell proliferation of naïve CD4SP T cells under anti-CD3/anti-CD28 stimulation (OD 450 nm); conditions: for effect of inhibiting cellular proliferation by cGAMP: FIG. 7A
Experimental: Wild type mice and STING-deficient mice were used. As acquired immune lymphocytes, T cells (in particular naïve CD4SP T cells) were used. Naïve CD4SP T cells were obtained as a CD4^+ CD25^− CD62L^+ fraction from murine spleen by sorting using FACSAria. As a STING ligand, cyclic [G(2′,5′)pA(3′,5′)p] (hereinafter, simply referred to as “cGAMP”) was used. cGAMP (manufactured by Invitrogen, Cat. No.: tlrl-nacga23-1) was used at a working concentration of 3 μg/mL, 10 μg/mL, or 30 μg/mL. The obtained T cells were stimulated with an anti-CD3 antibody (10 μg/mL) and an anti-CD28 antibody (10 μg/mL) in the presence or absence of cGAMP. […] The cells were treated for 48 hours and then the cell proliferation was measured by the optical density (OD 450 nm). The result was as illustrated in FIG. 1.
Moreover, the involvement of TBK1 in the function to inhibit cell proliferation by cGAMP was examined using TBK1 heterozygous mice and TBK1 knockout mice. The result was as illustrated in FIG. 6B.
(§1) Next, involvement of IRF3 and IRF7 in the effect of inhibiting cellular proliferation and the effect of increasing production of INF-α through STING were examined. Specifically, T cells from IRF3-deficient mice or IRF3/IRF7 double deficient mice (see Immunity, Vol. 13, 539-548, 2000; Nature, Vol. 434, 772-777, 2005) were stimulated by anti-CD3/CD28 antibodies in the presence or absence of cGAMP. 48 hours later, the proliferation of the cells and the production of INF-α were examined as described above. The results were as illustrated in FIGS. 7A and 7B.

type I interferon INF-α = assay: Production of type I interferon INF-α in naïve CD4SP T cells by ELISA; conditions: for effect of increasing production of INF-α by cGAMP: 48 hours, FIG. 7B
Experimental: 1×10^5 naïve CD4SP T cells were stimulated for 48 hours on a plate on which an anti-CD3 antibody (10 μg/mL) and an anti-CD28 antibody (10 μg/mL) were immobilized. The cell supernatant was collected and the production of the type I interferon INF-α was examined by ELISA using an anti-INF-α antibody. In innate immune cells, type I interferons are produced by the activation of TBK1 and its downstream IRF3 and IRF7. Therefore, T cells from TBK1 heteromice (Tbk1+/−) and TBK1-deficient mice (Tbk1−/−) were used (see, J Exp Med, Vol. 199, 1641-1650, 2004). The result was as illustrated in FIG. 6A.
as §1

[5] = system: lipid synthesis genes that are induced by the activation of mTORC1; assay: Expression levels of lipid synthesis genes by quantitative PCR; conditions: FIG. 5
Experimental: Moreover, the expression levels of lipid synthesis genes that are induced by the activation of mTORC1 were analyzed by quantitative PCR. The result was as illustrated in FIG. 5.

Nc1nc2c(ncn2[C@@H]2O[C@@H]3COP(=O)(O)O[C@H]4[C@@H](O)[C@H](n5cnc6c(N)ncnc65)O[C@@H]4COP(=O)(O)O[C@@H]2[C@@H]3O)c(=O)[nH]1 [cGAMP, cyclic [G(2′,5′)pA(3′,5′)p]]
apoptosis-inducing effect (naïve CD4SP T cells [1]; etoposide 10 μM): any prominent apoptosis-inducing effect was not found | cell survival rate (naïve CD4SP T cells [1]): decreased to some extent in a concentration-dependent manner | expression of Cdk1 [2]: inhibited | expression of Cdk4 [2]: inhibited | expression of cyclin A2 [2]: inhibited | expression of cyclin B1 [2]: inhibited | expression of cyclin D3 [2]: inhibited | expression of p21 [2]: increased | level of phosphorylated 4E-BP1 [3]: decreased | level of phosphorylated S6K [3]: decreased | effect of inhibiting cellular proliferation by cGAMP (naïve CD4SP T cells [4]; IRF3/IRF7 double deficient mice, 48 hours): largely decreased | effect of inhibiting cellular proliferation by cGAMP (naïve CD4SP T cells [4]; IRF3 deficient mouse, 48 hours): partially decreased | effect on the number of naïve CD4SP T cells (naïve CD4SP T cells [4]; STING-deficient mice (STING−/−), anti-CD3/anti-CD28 stimulation, 48 hours, FIG. 1): limited | effect of Tbk1 knockout on inhibition of cell proliferation by cGAMP (naïve CD4SP T cells [4]; TBK1 knockout versus TBK1 heterozygous mice, FIG. 6B): almost no effect | degree of effect on the number of cells compared with etoposide (naïve CD4SP T cells [4]; cGAMP versus 10 μM etoposide, 48 hours, FIG. 1): acted in a degree similar to etoposide | number of naïve CD4SP T cells (cell proliferation, OD 450 nm) (naïve CD4SP T cells [4]; wild type mice (STING+/+), cGAMP 3, 10 or 30 μg/mL, anti-CD3/anti-CD28 stimulation, 48 hours, FIG. 1): decreased in a concentration-dependent manner | effect of increasing production of INF-α by cGAMP (type I interferon INF-α; IRF3/IRF7 double deficient mice): almost completely disappeared | effect of increasing production of INF-α by cGAMP (type I interferon INF-α; IRF3 deficient mice): almost completely disappeared | increase in production of INF-α by cGAMP (type I interferon INF-α; TBK1-deficient mice (Tbk1−/−) versus Tbk1+/−, FIG. 6A): decreased by TBK1 knockout | INF-α production in T cells (type I interferon INF-α; anti-CD3/anti-CD28 stimulation 48 hours, ELISA of supernatant, FIG. 6A): prominent increase | expression levels of lipid synthesis-related genes [5]: decreased

COc1cc([C@@H]2c3cc4c(cc3[C@@H](O[C@@H]3O[C@@H]5CO[C@@H](C)O[C@H]5[C@H](O)[C@H]3O)[C@H]3COC(=O)[C@H]23)OCO4)cc(OC)c1O [etoposide]
number of cells (cell proliferation, OD 450 nm) (naïve CD4SP T cells [4]; etoposide 10 μM, STING+/+ and STING−/−, 48 hours, FIG. 1): decreased independent of the STING genotype
